Assays:
[1] = target: T1, E. coli expressed His-tagged human carbonyl reductase (CBR1) (Homo sapiens, UniProt P16152); assay: carbonyl reductase activity assay (NADPH oxidation with menadione), recombinant enzyme; format: biochemical; details: rate without benserazide 24.0
T1 construct: His; made in house; host or cells: E. coli
T1 sequence (P16152 1-277): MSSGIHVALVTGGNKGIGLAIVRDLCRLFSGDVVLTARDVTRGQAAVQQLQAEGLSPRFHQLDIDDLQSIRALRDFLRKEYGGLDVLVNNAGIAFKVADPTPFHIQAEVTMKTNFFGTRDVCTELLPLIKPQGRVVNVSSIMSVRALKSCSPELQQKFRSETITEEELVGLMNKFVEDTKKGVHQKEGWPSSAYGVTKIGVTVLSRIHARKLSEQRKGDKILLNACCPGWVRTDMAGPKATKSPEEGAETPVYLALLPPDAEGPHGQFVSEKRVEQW
Procedure: (§1) The carbonyl reductase activity was evaluated spectrophotometrically according to the methods of Iwata et al. 1990. Eur. J. Biochem 193, p. 75-81.: Inazu N, Ruepp B., Wirth H., Wermuth B. 1992. BBA, 1116, p. 50-56 and Imamura et al. 1993. Arch. Biochem. Biophys. 300, p. 570-576. The oxidation rate of NADPH was recorded in the presence of the specific substrate menadione at 340 nm at room temperature on a Jenway 6505 UV/VIS Spectrophotometer.
(§2) The standard assay mixture consisted of 100 mM sodium phosphate buffer pH 7.0, 0.12 mM NADPH, 0.25 mM menadione. The reaction was started by adding 5-20 μg of E. coli expressed His-tagged human carbonyl reductase (CBR1) or alternatively by adding 10 μl of mouse live lysate extract (total protein concentration of 15 mg/ml). The total volume of the reaction mixture was 1 ml. The change of the absorbance was monitored at 340 nm.
(§3) The inhibition of carbonyl reductase was determined using the assay described in example 1. In addition to menadione as a substrate, the assay mixture was supplemented with 0, 0.5, 1, 2, 3, 6, or 7.5 mM benserazide. The inhibition experiment performed with mouse liver lysate as well as with recombinant CBR1 in protein supplemented probes.

[2] = system: carbonyl reductase activity in mouse liver lysate; assay: carbonyl reductase activity assay (NADPH oxidation with menadione), mouse liver lysate; format: biochemical; details: rate without benserazide 16.3
Procedure: as §1, §2, §3

[3] = target: T2, Carbonyl Reductase (CBR1) (Mus musculus, UniProt P48758); assay: drug pulldown assay with immobilized benserazide, mouse liver cell lysate; format: binding; details: benserazide on NHS-activated beads, mass spectrometry identification
T2 construct: from tissue; host or cells: mouse liver
T2 sequence (P48758 1-277): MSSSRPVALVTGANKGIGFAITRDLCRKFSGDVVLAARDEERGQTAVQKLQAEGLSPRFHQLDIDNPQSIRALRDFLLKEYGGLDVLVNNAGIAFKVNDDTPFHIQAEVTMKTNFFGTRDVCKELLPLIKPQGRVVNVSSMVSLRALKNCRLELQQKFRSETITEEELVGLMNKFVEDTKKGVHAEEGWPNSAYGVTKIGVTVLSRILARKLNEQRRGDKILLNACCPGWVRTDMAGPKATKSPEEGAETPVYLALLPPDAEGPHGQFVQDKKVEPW
Procedure: The compound benserazide was immobilized on NHS-activated beads (Affi Gel 10, BioRad) via its NH2-group. 300 μl of the beads (both with the immobilized. benserazide and control beads) were washed in 10 ml washing buffer A (50 mM Tris, pH 7.5; 0.1 M NaCl, 0.15% lgepal, 1.5 mM MgCl2, 0.1 mM DTT) for 5-10 min at 4° C. and centrifugation for 5 min at 1000 rpm in a Heraeus Varifuge 3 OR).
Mouse liver cell lysate (60-100 mg total protein) and 125 μl 50× protease inhibitor tablets (Roche, Complete, EDTA free) where added to the beads and the suspension was incubated for 1 h at 4° C. (while rotating). The suspension was washed 1-3 × with 10 ml washing buffer B (50 mM Tris, pH 7.5; 0.1 M NaCl, 0.15% lgepal, 1.5 mM MgCl2, 0.1 mM DTT, 1× Protease inhibitor tablet (Complete, EDTA free, Roche)) by rotating the suspension for 5-10 min at 4° C. and centrifugation at 10,000 rpm at 4° C. The beads were transferred to a 1 ml MoBiTec column and connected to a 10 ml syringe. 10 ml washing buffer B were added.
Elution was performed by adding a 5-10 fold excess of the drug relative to the beads capacity. The drug was dissolved in 500 μl washing buffer B and incubated with beads on a rotating platform for 1 h at 4° C. and subsequently eluted in an eppendorf tube. 300 μl of washing buffer B were added to the beads and eluted immediately in the same eppendorf tube. […]

initial rate, carbonyl reductase ([1]; 2 mM benserazide, 0.25 mM menadione, 0.12 mM NADPH): 13.7 nmol/min
initial rate, carbonyl reductase ([1]; 6 mM benserazide): 3.5 nmol/min
initial rate, carbonyl reductase ([1]; 7.5 mM benserazide): 0.3 nmol/min
initial rate, mouse liver lysate ([2]; 0.5 mM benserazide): 12.1 nmol/min
initial rate, mouse liver lysate ([2]; 1 mM benserazide): 8.6 nmol/min
initial rate, mouse liver lysate ([2]; 2 mM benserazide): 1.2 nmol/min
initial rate, mouse liver lysate ([2]; 3 mM benserazide): 1.3 nmol/min
binding of carbonyl reductase (CBR1) to immobilized drug [3]: Identified as a Binding Partner
Compound: NC(CO)C(=O)NNCc1ccc(O)c(O)c1O (centres unmarked) [benserazide]
